pIC50: −log10 of the molar value. Calls of active or inactive are those of the source. No cut-off for these calls is given here.
What was measured:
[1] = system: SGC-7901; experiment: Cell cycle arrest in human SGC7901 cells assessed as accumulation at S phase at 600 nM after 48 hrs by propidium iodide staining based flow cytometric analysis (reference value: 33.30%); format: functional
[2] = system: SGC-7901; experiment: Induction of mitochondrial membrane depolarization in human SGC7901 cells assessed as cells with mitochondrial membrane potential loss at 800 nM after 48 hrs by JC-1 staining based flow cytometric analysis (reference value: 9.29%); format: functional
[3] = target: T1, Thioredoxin reductase (Homo sapiens) (UniProt Q16881+Q9NNW7+Q86VQ6); experiment: Inhibition of TrxR in human SGC7901 cells assessed as JNK phosphorylation at 600 to 1200 nM after 48 hrs by Western blot analysis; format: cell-based
[4] = system: SGC-7901; experiment: Induction of apoptosis in human SGC7901 cells assessed as early apoptotic cells at 1000 nM after 48 hrs by Annexin V-FITC/propidium iodide staining based flow cytometric analysis (reference value: 0.851 to 2.30%); format: functional
[5] = system: SGC-7901; experiment: Cell cycle arrest in human SGC7901 cells assessed as accumulation at S phase at 1000 nM after 48 hrs by propidium iodide staining based flow cytometric analysis (reference value: 33.30%); format: functional
[6] = system: SGC-7901; experiment: Induction of mitochondrial membrane depolarization in human SGC7901 cells assessed as cells with mitochondrial membrane potential loss at 1000 nM after 48 hrs by JC-1 staining based flow cytometric analysis (reference value: 9.29%); format: functional
[7] = system: SGC-7901; experiment: Induction of apoptosis in human SGC7901 cells assessed as viable cells at 1200 nM after 48 hrs in presence of NAC by Annexin V-FITC/propidium iodide staining based flow cytometric analysis (reference value: 96%); format: functional; settings: SGC-7901, 48 h, read-out: Activity
[8] = system: SGC-7901; experiment: Induction of apoptosis in human SGC7901 cells assessed as viable cells at 600 nM after 48 hrs by Annexin V-FITC/propidium iodide staining based flow cytometric analysis (reference value: 95.9%); format: functional; settings: SGC-7901, 48 h, read-out: Activity
[9] = system: SGC-7901; experiment: Induction of apoptosis in human SGC7901 cells assessed as early apoptotic cells at 1200 nM after 48 hrs in presence of NAC by Annexin V-FITC/propidium iodide staining based flow cytometric analysis (reference value: 0.851%); format: functional
[10] = system: SGC-7901; experiment: Induction of apoptosis in human SGC7901 cells assessed as increase in Bax to Bcl-2 ratio level at 600 to 1200 nM after 48 hrs by Western blot analysis; format: functional, cell-based
[11] = target: T1, Thioredoxin reductase (Homo sapiens); experiment: Inhibition of TrxR in human SGC7901 cells assessed as p38 phosphorylation at 1200 nM after 48 hrs in presence of NAC by Western blot analysis; format: cell-based
[12] = system: SGC-7901; experiment: Induction of apoptosis in human SGC7901 cells assessed as necrotic cells at 800 nM after 48 hrs by Annexin V-FITC/propidium iodide staining based flow cytometric analysis (reference value: 0.052%); format: functional
[13] = system: SGC-7901; experiment: Induction of apoptosis in human SGC7901 cells assessed as viable cells at 1200 nM after 48 hrs by Annexin V-FITC/propidium iodide staining based flow cytometric analysis (reference value: 95.9 to 96%); format: functional; settings: SGC-7901, 48 h, read-out: Activity
[14] = system: SGC-7901; experiment: Induction of apoptosis in human SGC7901 cells after 48 hrs by Annexin V-FITC/propidium iodide staining based flow cytometric analysis; format: functional, cell-based
[15] = system: U-87 MG; experiment: Antiproliferative activity against human U87 cells after 48 hrs by MTT assay; format: functional, cell-based, U-87MG ATCC
[16] = system: SGC-7901; experiment: Cell cycle arrest in human SGC7901 cells assessed as accumulation at S phase at 800 nM after 48 hrs by propidium iodide staining based flow cytometric analysis (reference value: 33.30%); format: functional
[17] = system: SGC-7901; experiment: Induction of mitochondrial membrane depolarization in human SGC7901 cells assessed as cells with mitochondrial membrane potential loss at 1200 nM after 48 hrs by JC-1 staining based flow cytometric analysis (reference value: 1.65 to 9.29%); format: functional
[18] = system: SGC-7901; experiment: Induction of mitochondrial membrane depolarization in human SGC7901 cells assessed as cells with intact mitochondrial membrane potential at 800 nM after 48 hrs by JC-1 staining based flow cytometric analysis (reference value: 87.3%); format: functional
[19] = system: SGC-7901; experiment: Induction of mitochondrial membrane depolarization in human SGC7901 cells assessed as cells with intact mitochondrial membrane potential at 1000 nM after 48 hrs in presence of NAC by JC-1 staining based flow cytometric analysis (reference value: 98%); format: functional
[20] = system: SGC-7901; experiment: Cell cycle arrest in human SGC7901 cells assessed as accumulation at G2 phase at 800 nM after 48 hrs by propidium iodide staining based flow cytometric analysis (reference value: 18.77%); format: functional
[21] = system: SGC-7901; experiment: Induction of apoptosis in human SGC7901 cells assessed as necrotic cells at 1000 nM after 48 hrs by Annexin V-FITC/propidium iodide staining based flow cytometric analysis (reference value: 0.052 to 0.304%); format: functional
[22] = target: T2, Thioredoxin reductase 1, cytoplasmic (Homo sapiens, UniProt Q16881); experiment: (§1) Inhibition of TrxR in human SGC7901 cells; format: cell-based
T2 sequence (Q16881 whole entry): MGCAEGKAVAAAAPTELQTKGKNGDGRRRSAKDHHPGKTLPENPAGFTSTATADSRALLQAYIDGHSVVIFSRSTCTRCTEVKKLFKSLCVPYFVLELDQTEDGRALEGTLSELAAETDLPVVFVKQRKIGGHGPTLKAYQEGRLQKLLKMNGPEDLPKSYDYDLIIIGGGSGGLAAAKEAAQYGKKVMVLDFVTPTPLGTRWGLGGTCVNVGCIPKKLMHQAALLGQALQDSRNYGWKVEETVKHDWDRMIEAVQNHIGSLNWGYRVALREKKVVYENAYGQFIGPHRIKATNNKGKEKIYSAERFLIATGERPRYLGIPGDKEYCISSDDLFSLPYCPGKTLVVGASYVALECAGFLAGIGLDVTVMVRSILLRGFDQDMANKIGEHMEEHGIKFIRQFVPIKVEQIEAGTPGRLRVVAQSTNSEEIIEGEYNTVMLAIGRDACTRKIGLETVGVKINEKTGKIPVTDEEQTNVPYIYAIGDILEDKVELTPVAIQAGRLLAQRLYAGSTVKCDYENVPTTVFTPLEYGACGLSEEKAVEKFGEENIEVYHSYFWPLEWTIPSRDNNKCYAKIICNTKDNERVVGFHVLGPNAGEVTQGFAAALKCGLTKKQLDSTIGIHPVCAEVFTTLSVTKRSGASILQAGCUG

[23] = target: T3, Thioredoxin reductase 1, cytoplasmic (Homo sapiens) (UniProt Q16881); experiment: as §1; format: cell-based
T3 sequence (whole entry): T2 sequence (Q16881 whole entry)

[24] = target: T1, Thioredoxin reductase (Homo sapiens); experiment: Inhibition of TrxR in human SGC7901 cells assessed as induction of intracellular ROS generation at 800 to 1000 nM after 5 hrs in presence of NAC by DCFH-DA staining based flow cytometric analysis; format: cell-based
[25] = system: SGC-7901; experiment: Cell cycle arrest in human SGC7901 cells assessed as accumulation at G1 phase after 48 hrs by propidium iodide staining based flow cytometric analysis; format: functional
[26] = system: SGC-7901; experiment: Induction of apoptosis in human SGC7901 cells assessed as decrease in cyclin D1 level after 48 hrs by Western blot analysis; format: functional, cell-based
[27] = system: SGC-7901; experiment: Induction of mitochondrial membrane potential loss in human SGC7901 cells after 48 hrs by JC-1 staining based flow cytometric analysis; format: functional, cell-based

T1 sequence (Q86VQ6 whole entry, looked up, one chain of several): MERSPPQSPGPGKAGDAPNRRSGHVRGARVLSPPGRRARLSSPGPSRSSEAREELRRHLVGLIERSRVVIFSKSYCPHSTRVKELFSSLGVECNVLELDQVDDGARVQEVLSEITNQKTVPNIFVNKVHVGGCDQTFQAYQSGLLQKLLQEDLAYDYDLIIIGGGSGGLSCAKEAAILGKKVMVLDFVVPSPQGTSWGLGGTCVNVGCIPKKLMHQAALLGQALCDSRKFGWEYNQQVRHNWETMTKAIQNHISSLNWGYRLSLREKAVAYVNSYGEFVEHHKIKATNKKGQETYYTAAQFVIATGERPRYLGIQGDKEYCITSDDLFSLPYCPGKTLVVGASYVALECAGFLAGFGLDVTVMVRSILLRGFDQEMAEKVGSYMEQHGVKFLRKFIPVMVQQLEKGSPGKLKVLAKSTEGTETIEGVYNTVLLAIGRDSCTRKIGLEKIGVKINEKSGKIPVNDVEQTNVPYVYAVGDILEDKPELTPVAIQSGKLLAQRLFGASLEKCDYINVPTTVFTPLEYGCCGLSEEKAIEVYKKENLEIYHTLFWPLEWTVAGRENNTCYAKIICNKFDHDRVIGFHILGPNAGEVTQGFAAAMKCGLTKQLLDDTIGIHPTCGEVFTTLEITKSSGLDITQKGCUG
T1 sequence (Q9NNW7 whole entry, looked up, one chain of several): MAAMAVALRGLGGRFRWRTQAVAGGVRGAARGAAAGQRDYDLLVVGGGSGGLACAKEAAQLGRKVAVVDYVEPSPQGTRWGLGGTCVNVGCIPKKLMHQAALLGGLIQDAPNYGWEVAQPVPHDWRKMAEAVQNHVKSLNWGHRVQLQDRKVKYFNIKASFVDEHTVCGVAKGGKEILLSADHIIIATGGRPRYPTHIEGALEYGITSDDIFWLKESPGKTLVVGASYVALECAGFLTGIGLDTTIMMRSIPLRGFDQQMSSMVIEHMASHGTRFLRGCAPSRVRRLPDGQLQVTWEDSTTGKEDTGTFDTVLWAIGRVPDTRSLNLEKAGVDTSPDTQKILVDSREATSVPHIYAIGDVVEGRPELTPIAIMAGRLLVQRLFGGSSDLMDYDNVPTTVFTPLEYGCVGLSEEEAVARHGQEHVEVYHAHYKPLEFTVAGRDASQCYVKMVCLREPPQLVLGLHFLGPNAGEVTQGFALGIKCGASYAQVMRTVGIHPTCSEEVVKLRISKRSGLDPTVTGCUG

For `COc1cc(OC)c2c(=O)c(OCCCOc3ccccc3/C=C/C(=O)/C=C/c3ccccn3)c(-c3cc(OC)c(OC)c(OC)c3)oc2c1`, the Activity [1] was 35.47%, the Activity [2] was 21.2% and the inhibition [3] was “Active”. For the same molecule, the Activity [4] was 24.7 - 32.2%, the Activity [5] was 33.28% and the Activity [6] was 39.9%. The viability at 1.2 µM [7] was 74.1%, the viability at 0.6 µM [8] was 87.7% and the Activity [9] was 4.46%. For the same molecule, the Activity [10] was “Active”, the inhibition [11] was “inactive” and the Activity [12] was 0.425%. For the same molecule, the viability at 1.2 µM [13] was 24.6 to 43.7%, the Activity [14] was “Dose-dependent effect” and the pIC50 [15] was 5.41. The Activity [16] was 35.37%, the Activity [17] was 55.4 - 63.7% and the Activity [18] was 75.7%. For the same molecule, the Activity [19] was 97.3%, the Activity [20] was 13.48% and the Activity [21] was 0.256 - 1.04%. The pIC50 [22] was 6.11, the inhibition [23] was “Dose-dependent effect” and the inhibition [24] was “inactive”. For the same molecule, the Activity [25] was “Dose-dependent effect”, the Activity [26] was “Dose-dependent effect” and the Activity [27] was “Dose-dependent effect”.

— ChEMBL document CHEMBL4270560, “Novel curcumin analogue hybrids: Synthesis and anticancer activity” (Eur J Med Chem, 2018)
